Laboratory results reported in the NIST ThermoML archive (doi:10.1021/je050085p).
± gives the expanded uncertainty stated by the source.

Assays:
[1] = refractive index (Na D-line) (dimensionless); settings: 101.33 kPa, Liquid, Standard Abbe refractometry
[2] = 308.15 K; 101.33 kPa; Liquid
[3] = xn = mol fraction of the nth substance listed; settings: 308.15 K, 101 kPa, Liquid
[4] = refractive index (Na D-line) (dimensionless); xn = mol fraction of the nth substance listed; settings: 308.15 K, 101 kPa, Liquid, Standard Abbe refractometry
[5] = excess molar enthalpy (molar enthalpy of mixing); xn = mol fraction of the nth substance listed; settings: 308.15 K, 101 kPa, Liquid, Flow calorimetry

CCOc1ccccc1 [ethoxybenzene]
[1]
Settings	refractive index
298.15 K	1.5058 ± 0.0007
308.15 K	1.5002 ± 0.0007

Settings	mass density [kg/m3]
[2]	950.86 ± 0.55

OCCCc1ccccc1 [3-phenyl-1-propanol] + CCOc1ccccc1
Settings	excess molar enthalpy [kcal/mol]	mass density [kg/m3]	refractive index
[3], x2 = 0.0636	–	988.77 ± 0.52	–
[3], x2 = 0.1067	–	987.22 ± 0.52	–
[3], x2 = 0.2164	–	983.2 ± 0.52	–
[3], x2 = 0.31	–	979.65 ± 0.52	–
[3], x2 = 0.417	–	975.46 ± 0.52	–
[3], x2 = 0.515	–	971.51 ± 0.52	–
[3], x2 = 0.6168	–	967.29 ± 0.52	–
[3], x2 = 0.7074	–	963.43 ± 0.52	–
[3], x2 = 0.7975	–	959.53 ± 0.52	–
[3], x2 = 0.8977	–	955.2 ± 0.5	–
[3], x2 = 0.9488	–	952.99 ± 0.52	–
[3], x2 = 0.9596	–	952.53 ± 0.52	–
[4], x2 = 0.0636	–	–	1.5203 ± 0.0007
[4], x2 = 0.1067	–	–	1.5194 ± 0.0007
[4], x2 = 0.2164	–	–	1.5173 ± 0.0007
[4], x2 = 0.31	–	–	1.5153 ± 0.0007
[4], x2 = 0.417	–	–	1.513 ± 0.0007
[4], x2 = 0.515	–	–	1.5109 ± 0.0007
[4], x2 = 0.6168	–	–	1.5086 ± 0.0007
[4], x2 = 0.7074	–	–	1.5066 ± 0.0007
[4], x2 = 0.7975	–	–	1.5045 ± 0.0007
[4], x2 = 0.8977	–	–	1.5023 ± 0.0007
[4], x2 = 0.9488	–	–	1.5012 ± 0.0007
[4], x2 = 0.9596	–	–	1.501 ± 0.0007
[5], x2 = 0.0427	0.0329 ± 0.000837	–	–
[5], x2 = 0.0818	0.0631 ± 0.00143	–	–
[5], x2 = 0.118	0.088 ± 0.00196	–	–
[5], x2 = 0.1513	0.114 ± 0.00239	–	–
[5], x2 = 0.211	0.146 ± 0.00311	–	–
[5], x2 = 0.2629	0.167 ± 0.00359	–	–
[5], x2 = 0.3485	0.193 ± 0.00406	–	–
[5], x2 = 0.4162	0.212 ± 0.00454	–	–
[5], x2 = 0.5169	0.236 ± 0.00502	–	–
[5], x2 = 0.6162	0.257 ± 0.0055	–	–
[5], x2 = 0.6815	0.267 ± 0.00574	–	–
[5], x2 = 0.7625	0.267 ± 0.00574	–	–
[5], x2 = 0.8106	0.255 ± 0.0055	–	–
[5], x2 = 0.8596	0.225 ± 0.00478	–	–
[5], x2 = 0.8954	0.194 ± 0.0043	–	–
[5], x2 = 0.9277	0.152 ± 0.00335	–	–
[5], x2 = 0.9625	0.0896 ± 0.00208	–	–

CCOc1ccccc1 [ethoxybenzene] + OCc1ccccc1
Settings	excess molar enthalpy [kcal/mol]	mass density [kg/m3]	refractive index
[3], x1 = 0.0642	–	1027.61 ± 0.22	–
[3], x1 = 0.0826	–	1025.86 ± 0.22	–
[3], x1 = 0.1663	–	1018.18 ± 0.23	–
[3], x1 = 0.1751	–	1017.38 ± 0.23	–
[3], x1 = 0.2585	–	1009.89 ± 0.25	–
[3], x1 = 0.3363	–	1003.06 ± 0.27	–
[3], x1 = 0.4598	–	992.51 ± 0.32	–
[3], x1 = 0.544	–	985.53 ± 0.35	–
[3], x1 = 0.6369	–	978.04 ± 0.39	–
[3], x1 = 0.7572	–	968.65 ± 0.43	–
[3], x1 = 0.8621	–	960.77 ± 0.47	–
[3], x1 = 0.9361	–	955.37 ± 0.5	–
[4], x1 = 0.0642	–	–	1.5322 ± 0.0007
[4], x1 = 0.0826	–	–	1.5313 ± 0.0007
[4], x1 = 0.1663	–	–	1.5279 ± 0.0007
[4], x1 = 0.1751	–	–	1.5275 ± 0.0007
[4], x1 = 0.2585	–	–	1.5244 ± 0.0007
[4], x1 = 0.3363	–	–	1.5216 ± 0.0007
[4], x1 = 0.4598	–	–	1.5172 ± 0.0007
[4], x1 = 0.544	–	–	1.5142 ± 0.0007
[4], x1 = 0.6369	–	–	1.5111 ± 0.0007
[4], x1 = 0.7572	–	–	1.5071 ± 0.0007
[4], x1 = 0.8621	–	–	1.5039 ± 0.0007
[4], x1 = 0.9361	–	–	1.5018 ± 0.0007
[5], x1 = 0.0328	0.0247 ± 0.000669	–	–
[5], x1 = 0.0636	0.0454 ± 0.00108	–	–
[5], x1 = 0.0924	0.0677 ± 0.00153	–	–
[5], x1 = 0.1195	0.0854 ± 0.00189	–	–
[5], x1 = 0.1691	0.118 ± 0.00263	–	–
[5], x1 = 0.2135	0.147 ± 0.00311	–	–
[5], x1 = 0.2893	0.177 ± 0.00382	–	–
[5], x1 = 0.3517	0.205 ± 0.0043	–	–
[5], x1 = 0.4488	0.232 ± 0.00502	–	–
[5], x1 = 0.5499	0.252 ± 0.0055	–	–
[5], x1 = 0.6196	0.262 ± 0.00574	–	–
[5], x1 = 0.7095	0.266 ± 0.00574	–	–
[5], x1 = 0.7651	0.259 ± 0.0055	–	–
[5], x1 = 0.8301	0.232 ± 0.00502	–	–
[5], x1 = 0.8669	0.209 ± 0.00454	–	–
[5], x1 = 0.907	0.169 ± 0.00359	–	–
[5], x1 = 0.9513	0.104 ± 0.00234	–	–

CCOc1ccccc1 [ethoxybenzene] + OCCc1ccccc1
Settings	excess molar enthalpy [kcal/mol]	mass density [kg/m3]	refractive index
[3], x1 = 0.0656	–	1004.96 ± 0.53	–
[3], x1 = 0.1079	–	1002.5 ± 0.52	–
[3], x1 = 0.1726	–	998.71 ± 0.52	–
[3], x1 = 0.3041	–	990.99 ± 0.52	–
[3], x1 = 0.3803	–	986.52 ± 0.52	–
[3], x1 = 0.4826	–	980.37 ± 0.52	–
[3], x1 = 0.5243	–	978.09 ± 0.52	–
[3], x1 = 0.5904	–	974.22 ± 0.52	–
[3], x1 = 0.6819	–	968.87 ± 0.52	–
[3], x1 = 0.7929	–	962.44 ± 0.52	–
[3], x1 = 0.8881	–	957 ± 0.52	–
[3], x1 = 0.9469	–	953.74 ± 0.52	–
[3], x1 = 0.9881	–	951.5 ± 0.52	–
[4], x1 = 0.0656	–	–	1.5252 ± 0.0007
[4], x1 = 0.1079	–	–	1.524 ± 0.0007
[4], x1 = 0.1726	–	–	1.5223 ± 0.0007
[4], x1 = 0.3041	–	–	1.5187 ± 0.0007
[4], x1 = 0.3803	–	–	1.5166 ± 0.0007
[4], x1 = 0.4826	–	–	1.5137 ± 0.0007
[4], x1 = 0.5243	–	–	1.5126 ± 0.0007
[4], x1 = 0.5904	–	–	1.5108 ± 0.0007
[4], x1 = 0.6819	–	–	1.5083 ± 0.0007
[4], x1 = 0.7929	–	–	1.5054 ± 0.0007
[4], x1 = 0.8881	–	–	1.5029 ± 0.0007
[4], x1 = 0.9469	–	–	1.5014 ± 0.0007
[4], x1 = 0.9881	–	–	1.5005 ± 0.0007
[5], x1 = 0.0378	0.027 ± 0.000717	–	–
[5], x1 = 0.0728	0.0534 ± 0.00124	–	–
[5], x1 = 0.1054	0.0772 ± 0.00172	–	–
[5], x1 = 0.1358	0.0979 ± 0.00215	–	–
[5], x1 = 0.1907	0.135 ± 0.00287	–	–
[5], x1 = 0.2391	0.159 ± 0.00335	–	–
[5], x1 = 0.3203	0.193 ± 0.00406	–	–
[5], x1 = 0.3858	0.218 ± 0.00478	–	–
[5], x1 = 0.4852	0.245 ± 0.00526	–	–
[5], x1 = 0.5857	0.268 ± 0.00574	–	–
[5], x1 = 0.6534	0.275 ± 0.00598	–	–
[5], x1 = 0.7388	0.273 ± 0.00598	–	–
[5], x1 = 0.7904	0.264 ± 0.00574	–	–
[5], x1 = 0.8498	0.232 ± 0.00502	–	–
[5], x1 = 0.8829	0.204 ± 0.0043	–	–
[5], x1 = 0.9188	0.161 ± 0.00359	–	–
[5], x1 = 0.9577	0.0965 ± 0.00222	–	–

OCCc1ccccc1 [2-phenylethanol]
[1]
Settings	refractive index
298.15 K	1.5321 ± 0.0007
308.15 K	1.5269 ± 0.0007

Settings	mass density [kg/m3]
[2]	1008.75 ± 0.56
